Each molecule was assayed against T1, human recombinant OX2 (hOX2) receptor (Homo sapiens, UniProt O43614) (assay: IP-1 accumulation assay (IP-One HTRF) in hOX2-CHO cells). Conditions: 60 min at 37° C., mean of at least two independent experiments, read-out: EC50_OX2R Category.
T1 construct: host or cells: CHO cells
T1 sequence (O43614 1-444): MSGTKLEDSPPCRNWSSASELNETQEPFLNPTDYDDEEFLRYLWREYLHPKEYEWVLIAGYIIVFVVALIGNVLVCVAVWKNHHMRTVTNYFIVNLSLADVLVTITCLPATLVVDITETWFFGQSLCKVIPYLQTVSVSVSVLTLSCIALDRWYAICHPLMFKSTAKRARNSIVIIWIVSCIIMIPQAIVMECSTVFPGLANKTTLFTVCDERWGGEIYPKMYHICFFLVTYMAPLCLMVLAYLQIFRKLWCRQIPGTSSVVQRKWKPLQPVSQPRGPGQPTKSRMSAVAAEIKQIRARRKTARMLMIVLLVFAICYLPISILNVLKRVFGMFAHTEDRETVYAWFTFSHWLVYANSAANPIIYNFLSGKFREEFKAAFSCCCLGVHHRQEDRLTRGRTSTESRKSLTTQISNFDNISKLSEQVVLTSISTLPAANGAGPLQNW
Format: cell-based
Experimental: Example 94: IP-1 Accumulation Assay
The accumulation of Inositol-1 Monophosphate (IP-1) was measured using IP-One HTRF® Terbium cryptate based assay (Cisbio) in human recombinant OX1 (hOX1) and at OX2 (hOX2) receptors expressed in CHO cells (DiscoverX) according to the manufacturer's instructions for cells tested in suspension.
hOX1-CHO and hOX2-CHO cells were seeded into white 384-well plates at a density of 20,000 cells/well in Hank's Balanced Salt Solution (HBSS) containing 20 mM HEPES pH 7.4, 50 mM, LiCl and 0.1% and Bovine Serum Albumin (BSA).
Compounds of the present disclosure were tested in a 11 points concentration response curve (CRC) serially diluted in neat DMSO at 200 fold concentrations and added by Echo acoustic liquid handling (Labcyte) to the cells (0.5% DMSO final in the assay). After 60 min of incubation at 37° C. detection reagents, IP1-d2 tracer and anti-IP1-cryptate were diluted in lysis buffer according to the manufacturer's descriptions and added to the cells.
Following 60 mi incubation at room temperature, time-resolved fluorescence (HTRF) was measured at 615 nm and 665 nm by Envision Multilabel reader (Perkin Elmer) and the HTRF ratio (A665/A615×10^4) was calculated.
The IP-1 accumulation response was expressed as percentage of the maximal OX-A response.
Curve fitting and EC50 estimations were carried out using a four-parameter logistic model using XLfit Software. Mean data of EC50 are calculated from at least two independent experiments performed in duplicates.

| SMILES | EC50 |
| --- | --- |
| O=C1COCC2(CCCN(C(=O)[C@H]3C[C@@H](F)C3)C2COC2CCN(c3ncc(F)cn3)CC2)N1 (mixture of isomers) [Example 78, rel-(6S,7R)-8-(3-fluorocyclobutanecarbonyl)-7-({[1-(5-fluoropyrimidin-2-yl)piperidin-4-yl]oxy}methyl)-4-oxa-1,8-diazaspiro[5.5]undecan-2-one] | 100 to 1000 nM |
| CCNC(=O)N1CCCC2(COC(F)C(=O)N2)C1CO[C@H]1CC[C@@H](c2ccccc2)CC1 (relative stereo) [Example 41, rel-(6S,7R)-N-ethyl-3-fluoro-2-oxo-7-({[(CIS)-4-phenylcyclohexyl]oxy}methyl)-4-oxa-1,8-diazaspiro[5.5] undecane-8-carboxamide] | < 100 nM |
| CCNC(=O)N1CCC[C@@]2(COCCC(=O)N2)[C@@H]1CO[C@H]1CC[C@@H](c2ccccc2)CC1 (relative stereo) [Example 55, rel-(1R,6S)-N-ethyl-8-oxo-1-({[(CIS)-4-phenylcyclohexyl]oxy}methyl)-11-oxa-2,7-diazaspiro[5.6]dodecane-2-carboxamide] | < 100 nM |
| O=C1N[C@]2(CCO1)[C@H](Cc1cccc(-c3cc(F)cc(F)c3)c1F)N(C(=O)[C@H]1C[C@@H](F)C1)CC2(F)F (relative stereo) [Example 79, rel-(1S,5R)-4,4-difluoro-2-[(CIS)-3-fluorocyclobutanecarbonyl]-1-({2,3′,5′-trifluoro-[1,1′-biphenyl]-3-yl}methyl)-8-oxa-2,6-diazaspiro[4.5]decan-7-one] | 100 to 1000 nM |
| CCNC(=O)N1CCC[C@]2(COCC(=O)N2)[C@H]1CO[C@H]1CC[C@@H](c2ccccc2)CC1 (single isomer, unassigned) [Example 2] | 1000 to 10000 nM |
| CCNC(=O)N1CCC[C@@]2(COCC(=O)N2)[C@@H]1CO[C@H]1CC[C@@H](c2ccccc2)CC1 (single isomer, unassigned) [Example 3] | < 100 nM |
| COC(=O)N1CCC[C@]2(COCC(=O)N2)[C@H]1CO[C@H]1CC[C@@H](c2ccccc2)CC1 (single isomer, unassigned) [Example 5] | > 10000 nM |
| COC(=O)N1CCC[C@@]2(COCC(=O)N2)[C@@H]1CO[C@H]1CC[C@@H](c2ccccc2)CC1 (single isomer, unassigned) [Example 6] | 100 to 1000 nM |
| O=C1COC[C@]2(CCCN(C(=O)C3CC3)[C@@H]2CO[C@H]2CC[C@@H](c3ccccc3)CC2)N1 (single isomer, unassigned) [Example 8] | > 10000 nM |
| O=C1COC[C@@]2(CCCN(C(=O)C3CC3)[C@H]2CO[C@H]2CC[C@@H](c3ccccc3)CC2)N1 (single isomer, unassigned) [Example 9] | 100 to 1000 nM |
| CCNC(=O)N1CCC[C@]2(CCOC(=O)N2)[C@H]1CO[C@H]1CC[C@@H](c2ccccc2)CC1 (single isomer, unassigned) [Example 13] | > 10000 nM |
| CCNC(=O)N1CCC[C@@]2(CCOC(=O)N2)[C@@H]1CO[C@H]1CC[C@@H](c2ccccc2)CC1 (single isomer, unassigned) [Example 14] | < 100 nM |
| CCNC(=O)N1CC[C@@]2(COCC(=O)N2)[C@@H]1CO[C@H]1CC[C@@H](c2ccccc2)CC1 (single isomer, unassigned) [Example 16] | 100 to 1000 nM |
| CCNC(=O)N1CC[C@]2(COCC(=O)N2)[C@H]1CO[C@H]1CC[C@@H](c2ccccc2)CC1 (single isomer, unassigned) [Example 17] | > 10000 nM |
| COC(=O)N1CCC[C@]2(CCOC(=O)N2)[C@H]1Cc1cccc(-c2ccccc2)c1 (single isomer, unassigned) [Example 20] | > 10000 nM |
| COC(=O)N1CCC[C@@]2(CCOC(=O)N2)[C@@H]1Cc1cccc(-c2ccccc2)c1 (single isomer, unassigned) [Example 21] | > 10000 nM |
| COC(=O)N1CCC[C@]2(CCOC(=O)N2)[C@@H]1Cc1cccc(-c2ccccc2)c1 (single isomer, unassigned) [Example 22] | > 10000 nM |
| COC(=O)N1CCC[C@@]2(CCOC(=O)N2)[C@H]1Cc1cccc(-c2ccccc2)c1 (single isomer, unassigned) [Example 23] | > 10000 nM |

| SMILES | EC50 |
| --- | --- |
| CCNC(=O)N1CCC[C@@]2(CNS(=O)(=O)N2)[C@@H]1Cc1cccc(-c2ccccc2)c1 (single isomer, unassigned) [Example 31] | > 10000 nM |
| CCNC(=O)N1CCC[C@]2(CNS(=O)(=O)N2)[C@H]1Cc1cccc(-c2ccccc2)c1 (single isomer, unassigned) [Example 32] | > 10000 nM |
| CCNC(=O)N1CCC[C@]2(CCCC(=O)N2)[C@H]1CO[C@H]1CC[C@@H](c2ccccc2)CC1 (single isomer, unassigned) [Example 34] | > 10000 nM |
| CCNC(=O)N1CCC[C@@]2(CCCC(=O)N2)[C@@H]1CO[C@H]1CC[C@@H](c2ccccc2)CC1 (single isomer, unassigned) [Example 35] | < 100 nM |
| CCNC(=O)N1CCC[C@]2(COC(C)C(=O)N2)[C@H]1CO[C@H]1CC[C@@H](c2ccccc2)CC1 (single isomer, unassigned) [Example 39] | > 10000 nM |
| CCNC(=O)N1CCC[C@@]2(COC(C)C(=O)N2)[C@@H]1CO[C@H]1CC[C@@H](c2ccccc2)CC1 (single isomer, unassigned) [Example 40] | < 100 nM |
| CCNC(=O)N1CCC[C@]2(COC(F)C(=O)N2)[C@H]1CO[C@H]1CC[C@@H](c2ccccc2)CC1 (single isomer, unassigned) [Example 42] | 1000 to 10000 nM |
| CCNC(=O)N1CCC[C@@]2(COC(F)C(=O)N2)[C@@H]1CO[C@H]1CC[C@@H](c2ccccc2)CC1 (single isomer, unassigned) [Example 43] | < 100 nM |
| CCNC(=O)N1CCC(F)(F)[C@@]2(CCOC(=O)N2)[C@@H]1CO[C@H]1CC[C@@H](c2ccccc2)CC1 (single isomer, unassigned) [Example 45] | < 100 nM |
| CCNC(=O)N1CCC(F)(F)[C@]2(CCOC(=O)N2)[C@H]1CO[C@H]1CC[C@@H](c2ccccc2)CC1 (single isomer, unassigned) [Example 46] | > 10000 nM |
| O=C1N[C@]2(CCCN(C(=O)[C@H]3C[C@@H](F)C3)[C@H]2CO[C@H]2CC[C@@H](c3ccccc3)CC2)CCO1 (single isomer, unassigned) [Example 66] | < 100 nM |
| O=C1N[C@@]2(CCCN(C(=O)[C@H]3C[C@@H](F)C3)[C@@H]2CO[C@H]2CC[C@@H](c3ccccc3)CC2)CCO1 (single isomer, unassigned) [Example 67] | > 10000 nM |
| O=C1COC[C@@]2(CCN(C(=O)[C@H]3C[C@@H](F)C3)[C@H]2Cc2cccc(-c3cc(F)cc(F)c3)c2F)N1 (single isomer, unassigned) [Example 72] | 100 to 1000 nM |
| O=C1COC[C@]2(CCN(C(=O)[C@H]3C[C@@H](F)C3)[C@@H]2Cc2cccc(-c3cc(F)cc(F)c3)c2F)N1 (single isomer, unassigned) [Example 73] | > 10000 nM |
| O=C1N[C@]2(CCN(C(=O)OCC(F)F)[C@H]2Cc2cccc(-c3cc(F)cc(F)c3)c2F)COC1F (single isomer, unassigned) [Example 74] | 1000 to 10000 nM |
| O=C1N[C@@]2(CCN(C(=O)OCC(F)F)[C@@H]2Cc2cccc(-c3cc(F)cc(F)c3)c2F)COC1F (single isomer, unassigned) [Example 75] | > 10000 nM |
| C[C@@H]1C[C@@]2(COCC(=O)N2)[C@H](Cc2cccc(-c3cc(F)cc(F)c3)c2F)N1C(=O)C1CC1F (single isomer, unassigned) [Example 90] | 100 to 1000 nM |
